Here are results for two compounds from patent publication US20100028889A1, “COMPANION DIAGNOSTIC ASSAYS FOR CANCER THERAPY” (ABBOTT LABORATORIES, priority 2006, published 2010).

Molecules are shown by their SMILES. Like-named read-outs stand apart in the source and are kept apart here.

In one assay the test system is CCRF-CEM. Put plainly: cell cytotoxicity EC50, CellTiter Glo, leukemia/lymphoma cell line. The class given is cell-based, human. On the procedure: (§1) The SCLC and leukemia/lymphoma cell lines listed below were obtained from the American Type Culture Collection (Manassas, Va.), Deutsche Sammlung von Mikroorganismen und Zellkulturen (DSMZ, Braunsweig, Germany), or were the generous gift from Dr. Louis Staudt (National Cancer Institute) and were cultured as described in Tse, C., Shoemaker, A. R., Adickes, J., et al., “ABT-263: a potent and orally bioavailable Bcl-2 family inhibitor,” Cancer Res 2008; 68: 3421-3428; and Tahir, S. K., Yang, X., Anderson, M. G., et al., “Influence of Bcl-2 family members on the cellular response of small-cell lung cancer cell lines to ABT-737,” Cancer Res 2007; 67: 1176-1183.
(§2) Cells were treated at 10,000 or 50,000 cells per well for adherent or suspension cells, respectively, in 96-well microtiter plates in the presence of 10% human serum for 48 hours with or without ABT-263, in a humidified chamber with 5% CO2. ABT-263 was synthesized as previously described in Tse, C., Shoemaker, A. R., Adickes, J., et al., “ABT-263: a potent and orally bioavailable Bcl-2 family inhibitor,” Cancer Res 2008; 68: 3421-3428; and Oltersdorf, T., Elmore, S. W., Shoemaker, A. R., et al., “An inhibitor of Bcl-2 family proteins induces regression of solid tumours,” Nature 2005; 435: 677-681, and cell cytotoxicity EC50 values were assessed using CellTiter Glo (Promega, Madison Wis.).

The test system of a further assay is CCRF-HSB2. The assay is described as above. The class given is cell-based, human. On the procedure: as §1, §2
The subject of the next assay is CEM/C1. The description is as above. It is filed as cell-based, human. On the procedure: as §1, §2
For the next assay, the system named is DOHH2. The description is as above. The settings on record: DOHH-2. The class given is cell-based, human. On the procedure: as §1, §2
For a further assay, the system named is HL60. Described as above. The class given is cell-based, human. On the procedure: as §1, §2
In a further assay the test system is I9.2. Described as above. It is filed as cell-based, human. On the procedure: as §1, §2
For another assay, the system named is Jurkat. Described as above. It is filed as cell-based, human. On the procedure: as §1, §2
Another assay concerns K562. Described as above. The class given is cell-based, human. On the procedure: as §1, §2
Another assay deals with KG1a. Described as above. The class given is cell-based, human. The conditions noted are these: KG-1a. The method, then:
as §1, §2

The subject of the next assay is MEG-01. Described as above. The class given is cell-based, human. The method, then:
as §1, §2

Another assay relates to MOLT-4. Described as above. It is filed as cell-based, human. The method, then:
as §1, §2

The next assay deals with MV-4-11. The description is as above. The class given is cell-based, human. The method, then: as §1, §2
A further assay deals with Pfeiffer. Described as above. The class given is cell-based, human. The method, then: as §1, §2
The next assay deals with RS4; 11. The assay is described as above. It is filed as cell-based, human. The method, then:
as §1, §2

The test system of the next assay is Raji. The assay is described as above. The class given is cell-based, human. The method, then: as §1, §2
In the next assay the test system is Reh. Described as above. It is filed as cell-based, human. The method, then:
as §1, §2

The test system of a further assay is Rs11380. The assay is described as above. The class given is cell-based, human. On the procedure:
as §1, §2

Another assay has as its system SuDHL-4. Described as above. It is filed as cell-based, human. The method, then: as §1, §2
A further assay deals with U-937. The description is as above. It is filed as cell-based, human. The method, then: as §1, §2
The subject of a further assay is WSU-NHL. Described as above. It is filed as cell-based, human. On the procedure: as §1, §2
The subject of assay [1] is diverse panel of human cancer cell lines. The settings on record: cited from earlier work.
The mark [2] stands for this setting: 10% human serum, 48 hours, read-out: EC50.
[3] abbreviates: Homo sapiens, read-out: Response Designation.

Take `CC1(C)CCC(c2ccc(Cl)cc2)=C(CN2CCN(c3ccc(C(=O)NS(=O)(=O)c4ccc(N[C@H](CCN5CCOCC5)CSc5ccccc5)c(S(=O)(=O)C(F)(F)F)c4)cc3)CC2)C1` [ABT-263, N-(4-(4-((2-(4-chlorophenyl)-5,5-dimethyl-1-cyclohex-1-en-1-yl)methyl)piperazin-1-yl)benzoyl)-4-(((1R)-3-(morpholin-4-yl)-1-((phenylsulfanyl)methyl)propyl)amino)-3-((trifluoromethyl)sulfonyl)benzenesulfonamide]: the EC50 was 0.765 µM with CCRF-CEM (setting [2]); at most 4.8 µM with CCRF-CEM (setting [3]); 1.15 µM in the assay with CCRF-HSB2 (CCRF-HSB-2, 10% human serum, 48 hours, read-out: EC50); at most 4.8 µM with CCRF-HSB2 (Homo sapiens, CCRF-HSB-2, read-out: Response Designation); 0.063 µM with CEM/C1 (setting [2]); at most 4.8 µM with CEM/C1 (setting [3]). For the same compound, the EC50 in the assay with DOHH2 (DoHH2, 10% human serum, 48 hours, read-out: EC50) was 0.322 µM; in the assay on DOHH2 (Homo sapiens, DOHH2, read-out: Response Designation), at most 4.8 µM; in the assay on HL60 (HL-60, 10% human serum, 48 hours, read-out: EC50), 4.84 µM; in the assay with HL60 (Homo sapiens, HL-60, read-out: Response Designation) it was at most 4.8 µM; in the assay on I9.2 (setting [2]), 1.8 µM; in the assay on I9.2 (setting [3]), at most 4.8 µM. For the same compound, the EC50 in the assay on Jurkat (setting [2]) was 3.35 µM; in the assay on Jurkat (setting [3]) it was at most 4.8 µM; in the assay with K562 (setting [2]), 12.8 µM; with K562 (setting [3]) it was above 4.8 µM; in the assay on KG1a (setting [3]), at most 4.8 µM; in the assay with KG1a (setting [2]), 0.243 µM. For the same compound, the EC50 is above 4.8 µM in the assay on MEG-01 (Homo sapiens, MEG-01, read-out: Response Designation); 6.04 µM with MEG-01 (Meg-01, 10% human serum, 48 hours, read-out: EC50); at most 4.8 µM in the assay on MOLT-4 (Homo sapiens, MOLT-4, read-out: Response Designation); 0.385 µM in the assay with MOLT-4 (Molt-4, 10% human serum, 48 hours, read-out: EC50); at most 4.8 µM in the assay on MV-4-11 (Homo sapiens, MV4-11, read-out: Response Designation); 0.028 µM with MV-4-11 (MV4-11, 10% human serum, 48 hours, read-out: EC50). Besides, the EC50 in the assay with Pfeiffer (setting [2]) is 8.81 µM; in the assay with Pfeiffer (setting [3]), above 4.8 µM; with RS4; 11 (Homo sapiens, RS4;11, read-out: Response Designation), at most 4.8 µM; with RS4; 11 (RS4, 11, 10% human serum, 48 hours, read-out: EC50), 0.095 µM; in the assay with Raji (setting [2]), 23.7 µM; in the assay with Raji (setting [3]), above 4.8 µM. The EC50 in the assay on Reh (setting [2]) is 0.434 µM; in the assay with Reh (setting [3]) it was at most 4.8 µM; in the assay with Rs11380 (setting [2]), 0.145 µM; with Rs11380 (setting [3]), at most 4.8 µM; in the assay on SuDHL-4 (Homo sapiens, SU-DHL-4, read-out: Response Designation), at most 4.8 µM; in the assay with SuDHL-4 (SU-DHL-4, 10% human serum, 48 hours, read-out: EC50) it was 1.04 µM. The EC50 is 33.9 µM in the assay on U-937 (setting [2]), above 4.8 µM with U-937 (setting [3]), 3.55 µM with WSU-NHL (setting [2]) and at most 4.8 µM with WSU-NHL (setting [3]).

On to `CN(C)CC[C@H](CSc1ccccc1)Nc1ccc(S(=O)(=O)NC(=O)c2ccc(N3CCN(Cc4ccccc4-c4ccc(Cl)cc4)CC3)cc2)cc1[N+](=O)[O-]` [ABT-737, N-(4-(4-((4′-chloro(1,1′-biphenyl)-2-yl)methyl)piperazin-1-yl)benzoyl)-4-(((1R)-3-(dimethylamino)-1-((phenylsulfanyl)methyl)propyl)amino)-3-nitrobenzenesulfonamide], for which the “potency across a diverse panel of human cancer cell lines” value in assay [1] is “selective potency against SCLC and lymphoma cell lines”.
